Data set [1] in a line: Microsomal stability assay, liver microsome half-life (mouse). The format is in vitro ADME. The settings on record: pH 7.4; mouse liver microsomes 0.5 mg/mL, 1 μM compound, 37° C.; read-out: Liver microsome T1/2 Mouse. In outline: (§1)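 Test compound at 1 μM incubated at 37 °C with 0.5 mg/mL liver microsomal protein plus 1 mM NADPH and/or 1 mM UDPGA (with alamethicin) in 100 mM potassium phosphate pH 7.4, 3 mM MgCl2. Sampled at 0, 15, 30, 60 min, acetonitrile quench, LC/MS/MS; t½ from parent depletion relative to 0 min.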

Data set [2] has as its target T1, androgen receptor (AR) (Homo sapiens, UniProt P10275, T878A).
T1 sequence (P10275 1-920 T878A): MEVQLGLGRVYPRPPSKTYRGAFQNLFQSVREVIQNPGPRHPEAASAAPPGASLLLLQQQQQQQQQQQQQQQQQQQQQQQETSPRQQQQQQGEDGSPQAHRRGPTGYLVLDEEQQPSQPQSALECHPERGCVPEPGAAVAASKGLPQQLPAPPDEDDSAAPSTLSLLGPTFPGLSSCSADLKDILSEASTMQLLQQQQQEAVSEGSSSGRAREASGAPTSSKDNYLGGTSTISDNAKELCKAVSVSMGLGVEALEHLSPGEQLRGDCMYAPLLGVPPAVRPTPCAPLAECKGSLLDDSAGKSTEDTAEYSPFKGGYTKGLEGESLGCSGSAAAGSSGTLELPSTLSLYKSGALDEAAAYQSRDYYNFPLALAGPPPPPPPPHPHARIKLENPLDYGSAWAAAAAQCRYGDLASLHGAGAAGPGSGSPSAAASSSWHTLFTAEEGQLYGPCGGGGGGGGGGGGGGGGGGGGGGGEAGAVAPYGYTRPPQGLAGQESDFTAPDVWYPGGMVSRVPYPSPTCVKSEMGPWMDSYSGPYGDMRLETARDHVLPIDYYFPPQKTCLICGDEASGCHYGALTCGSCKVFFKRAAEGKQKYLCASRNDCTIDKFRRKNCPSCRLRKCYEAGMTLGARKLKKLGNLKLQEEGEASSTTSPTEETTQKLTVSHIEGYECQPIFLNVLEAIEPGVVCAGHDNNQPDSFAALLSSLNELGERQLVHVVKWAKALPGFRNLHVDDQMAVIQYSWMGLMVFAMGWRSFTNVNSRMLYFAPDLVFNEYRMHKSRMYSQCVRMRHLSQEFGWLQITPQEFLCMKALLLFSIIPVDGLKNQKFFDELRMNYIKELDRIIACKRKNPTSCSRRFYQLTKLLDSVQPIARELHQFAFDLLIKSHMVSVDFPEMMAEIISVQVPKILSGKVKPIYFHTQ
In words: Androgen-induced PSA (6.1 kb)-luciferase reporter assay in LNCaP cells (R1881 1 nM). The data set is classed as cell-based. Details: endogenous in cells; host or cells: LNCaP. The settings on record: 24 h, read-out: PSA-Luc IC50 Range. The gist of the method:
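LNCaP cells transiently transfected with PSA (6.1 kb)-luciferase for 24 h, pretreated 1 h with compound or DMSO, then stimulated with 1 nM R1881 for 24 h. Firefly luciferase in lysates normalized to protein content; IC50 relative to R1881-induced vehicle activity.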

Data set [3] is described as follows: Microsomal stability assay, liver microsome half-life (rat). The format is in vitro ADME. The note with it: pH 7.4; rat liver microsomes 0.5 mg/mL, 1 μM compound, 37° C.; read-out: Liver microsome T1/2 Rat. The gist of the method:
as §1
In general terms: Liver microsomes are vesicles of endoplasmic reticulum, rich in cytochrome P450 enzymes.

Data set [4] can be described thus: Microsomal stability assay, liver microsome half-life (monkey). The format is in vitro ADME. The note with it: pH 7.4; monkey liver microsomes 0.5 mg/mL, 1 μM compound, 37° C.; read-out: Liver microsome T1/2 Monkey.
Data set [5] is described as follows: Microsomal stability assay, liver microsome half-life (human). The format is in vitro ADME. The settings on record: pH 7.4; human liver microsomes 0.5 mg/mL, 1 μM compound, 37° C.; read-out: Liver microsome T1/2 Human. The gist of the method: as §1
The nature of data set [6]: Microsomal stability assay, liver microsome half-life (dog). The data set is classed as in vitro ADME. The settings on record: pH 7.4; dog liver microsomes 0.5 mg/mL, 1 μM compound, 37° C.; read-out: Liver microsome T1/2 Dog.
In data set [7] the target is T1, androgen receptor (AR). In words: Androgen-induced PSA (6.1 kb)-luciferase reporter assay in LNCaP cells (R1881 1 nM). The format is cell-based. Details: LNCaP cells were transiently transfected with the PSA (6.1 kb)-luciferase reporter for 24 h; endogenous in cells; host or cells: LNCaP. The note with it: 24 h, read-out: PSA-Luc IC50 Range. The method, then: The PSA (6.1 kb)-luciferase reporter contains functional AREs (androgen response elements) to which AR binds in response to androgen to induce luciferase activity. LNCaP cells were transiently transfected with the PSA (6.1 kb)-luciferase reporter for 24 h, and then pretreated with vehicle (DMSO) or indicated concentration of representative compounds for one hour prior to the addition of synthetic androgen, R1881 (1 nM). After 24 h of incubation with R1881, the cells were harvested, and relative luciferase activities were determined (FIG. 1). To determine the IC50, treatments were normalized to vehicle control activity induced by R1881 (Table 2).
Luciferase Assay: Cells were lysed using Passive Lysis Buffer (Promega) and then collected into V-bottom 96-well tissue culture plates. Lysates were centrifuged at 4° C. for 5 minutes at 3000 rpm. To measure luminescence of LNCaP cell lysates the Firefly Luciferase Assay System (Promega) was employed, according to manufacturer's protocol. Relative luminescence units (RLU) in cell lysates were detected for 10 seconds using Promega GloMax-Multi Detection Luminometer (Promega). Values were normalized to protein content. GraphPad Prism graphing software was used to calculate IC50 values.
Statistical analyses were performed using GraphPad Prism (Version 6.01 for Windows; La Jolla, Calif., USA). […]
Background: A reporter such as luciferase makes a cellular process visible.

The record followed here is patent publication US20220380378A1 (ESSA Pharma, Inc., priority 2021, published 2022).

Read-outs that look alike come from different tables or passages of the source.

On to `CC(C)(c1ccc(-c2ccc3nc(NS(C)(=O)=O)sc3c2)cc1)c1cc(Cl)c(OCCCl)c(C#N)c1` [Compound A274], for which the half-life at 1 μM in data set [1], in data set [3], in data set [4], in data set [5] and in data set [6] was over 2 h each time. The IC50 in data set [2] was under 0.5 µM.

In the case of `CC(C)(c1ccc(-c2ccc3nc(NS(C)(=O)=O)ncc3c2)cc1)c1cc(Cl)c(OCCCl)c(C#N)c1` [Compound A51, N-[6-(4-{2-[3-chloro-4-(2-chloroethoxy)-5-cyanophenyl]propan-2-yl}phenyl)quinazolin-2-yl]methanesulfonamide], the half-life at 1 μM is over 2 h in data set [1]; over 2 h in data set [3]; over 2 h in data set [4]; over 2 h in data set [5]; 1.78 h in data set [6]. Further, the IC50 in data set [2] was under 0.5 µM.

For the molecule `C[C@@H](Oc1ccc(C(C)(C)c2cc(Cl)c(OCCCl)c(C#N)c2)cc1)C12CC(NS(C)(=O)=O)(C1)C2` [Compound A264], the half-life at 1 μM in data set [1] was over 2 h; in data set [3] it was over 2 h; in data set [4], 0.8 h; in data set [5], over 2 h; in data set [6], over 2 h. In data set [2], the concentration for half-maximal inhibition (IC50) lay in the range of 0.5 to 2 µM.

Take `CS(=O)(=O)NC1CCN(Cc2ccc3c(ccn3-c3cc(Cl)c(OCCCl)c(C#N)c3)c2)CC1(F)F` (stereo not shown) [Compound A239]: the half-life at 1 μM in data set [1] was over 2 h; in data set [3], over 2 h; in data set [4] it was 0.65 h; in data set [5] it was 1.88 h; in data set [6] it was over 2 h. The IC50 in data set [2] lay within 0.5 to 2 µM.

With `CS(=O)(=O)Nc1nccc(COc2ccc3c(ncn3-c3cc(Cl)c(OCCCl)c(C#N)c3)c2Cl)n1` [Compound A46], the IC50 in data set [7] was under 0.5 µM.

Turning to `CC(C)(c1ccc(OCc2ccnc(NS(C)(=O)=O)c2F)cc1)c1cc(Cl)c(OCCCl)c(C#N)c1` [Compound A48], the half-life at 1 μM in data set [1], in data set [3], in data set [4], in data set [5] and in data set [6] was over 2 h throughout. In data set [2], the IC50 lay in the range of 0.5 to 2 µM.

`CS(=O)(=O)Nc1nccc(COc2ccc3c(c2)CCC3c2cc(Cl)c(OCCCl)c(C#N)c2)n1` (stereo not shown) [Compound A35, N-(4-(((1-(3-chloro-4-(2-chloroethoxy)-5-cyanophenyl)-2,3-dihydro-1H-inden-5-yl)oxy)methyl)pyrimidin-2-yl)methanesulfonamide]: the half-life at 1 μM in data set [1], in data set [3], in data set [4], in data set [5] and in data set [6] was over 2 h in each case. For the same molecule, the IC50 in data set [2] fell in the range of 0.5 to 2 µM.

In the case of `CS(=O)(=O)NC12CC(COc3ccc4c(c3)CCC4c3cc(Cl)c(OCCCl)c(C#N)c3)(C1)C2` (stereo not shown) [Compound A246], the half-life at 1 μM was over 2 h in data set [1]; 1.08 h in data set [3]; 1.3 h in data set [4]; 1.48 h in data set [5]; 1.32 h in data set [6]. In addition, the half-maximal inhibitory concentration (IC50) in data set [2] was in the range of 0.5 to 2 µM.

`CC(C)(c1ccc(-c2ccc3nc(NS(C)(=O)=O)ccc3n2)cc1)c1cc(Cl)c(OCCCl)c(C#N)c1` [Compound A191]: the half-life at 1 μM in data set [1], in data set [3], in data set [4], in data set [5] and in data set [6] was over 2 h in each case. In addition, the IC50 in data set [2] is under 0.5 µM.

Take `CS(=O)(=O)NC12CC(COc3ccc4c(ccn4-c4cc(Cl)c(OCCCl)c(C#N)c4)c3)(C1)C2` [Compound A57, N-(3-(((1-(3-chloro-4-(2-chloroethoxy)-5-cyanophenyl)-1H-indol-5-yl)oxy)methyl)bicyclo[1.1.1]pentan-1-yl)methanesulfonamide]: the half-life at 1 μM in data set [1] was over 2 h; in data set [3] it was over 2 h; in data set [4], 1.13 h; in data set [5], 1.15 h; in data set [6], over 2 h. The IC50 in data set [2] is under 0.5 µM.

By IC50 is commonly meant the concentration that inhibits the measured activity by half.
